Calls of active or inactive are those of the source. The rule behind the calls is not given here.
Columns and labels:
[1] = (§1) Antiproliferative activity against human MGC803 cells after 72 hrs by MTT assay; format: functional, cell-based; settings: MGC-803, 72 h
[2] = Antiproliferative activity against human EC109 cells after 72 hrs by MTT assay; format: functional, cell-based; settings: ECa-109, 72 h
[3] = Antiproliferative activity against human MCF7 cells after 72 hrs by MTT assay; format: functional, cell-based; settings: MCF7, 72 h
[4] = Antiproliferative activity against human GES-1 cells after 72 hrs by MTT assay; format: cell-based; settings: GES1, 72 h
MGC-803 [5] = experiment: as §1; format: functional, cell-based
MGC-803 [6] = experiment: Induction of apoptosis in human MGC803 cells at 4 uM after 24 hrs by Annexin-V FITC/propidium iodide staining based flow cytometry (reference value: 1.8%); format: functional
MGC-803 [7] = experiment: Induction of apoptosis in human MGC803 cells assessed as chromatin shrinkage at 1 to 4 uM after 24 hrs by Hoechst 33258 staining based fluorescence microscopic method; format: functional, cell-based
MGC-803 [8] = experiment: Induction of apoptosis in human MGC803 cells assessed as increase in Bak protein expression after 24 hrs by Western blot method; format: functional, cell-based
MGC-803 [9] = experiment: Induction of apoptosis in human MGC803 cells assessed as increase in caspase-9 protein expression at 1 to 4 uM after 24 hrs by Western blot method; format: functional, cell-based
[10] = target: Lysine-specific histone demethylase 1A (Homo sapiens) (UniProt O60341); experiment: Inhibition of LSD1 (unknown origin) at 10 uM relative to control
MGC-803 [11] = experiment: Induction of apoptosis in human MGC803 cells at 2 uM after 24 hrs by Annexin-V FITC/propidium iodide staining based flow cytometry (reference value: 1.8%); format: functional
MGC-803 [12] = experiment: Induction of apoptosis in human MGC803 cells assessed as increase in PUMA protein expression after 24 hrs by Western blot method; format: functional, cell-based
MGC-803 [13] = experiment: Induction of apoptosis in human MGC803 cells after 24 hrs by Annexin-V FITC/propidium iodide staining based flow cytometry; format: functional, cell-based
MGC-803 [14] = experiment: Induction of mitochondrial membrane potential loss in human MGC803 cells at 4 uM after 24 hrs by JC-1 staining based flow cytometry (reference value: 49.8%); format: functional
MGC-803 [15] = experiment: Induction of apoptosis in human MGC803 cells assessed as cell rounding at 1 to 4 uM after 24 hrs by Hoechst 33258 staining based fluorescence microscopic method; format: functional
MGC-803 [16] = experiment: Induction of apoptosis in human MGC803 cells assessed as formation of apoptotic bodies at 1 to 4 uM after 24 hrs by Hoechst 33258 staining based fluorescence microscopic method; format: functional, cell-based
MGC-803 [17] = experiment: Induction of apoptosis in human MGC803 cells assessed as increase in caspase-3 protein expression at 1 to 4 uM after 24 hrs by Western blot method; format: functional, cell-based
MGC-803 [18] = experiment: Induction of mitochondrial membrane potential loss in human MGC803 cells after 24 hrs by JC-1 staining based flow cytometry; format: functional, cell-based
MGC-803 [19] = experiment: Induction of apoptosis in human MGC803 cells at 1 uM after 24 hrs by Annexin-V FITC/propidium iodide staining based flow cytometry (reference value: 1.8%); format: functional
[20] = Inhibition of colony formation in human MGC803 cells assessed as reduction in foci formation at 0.8 uM after 10 days by crystal violet staining based assay relative to control; format: functional; settings: MGC-803, 240 h
MGC-803 [21] = experiment: Induction of apoptosis in human MGC803 cells assessed as decrease in Mcl1 protein expression at 1 to 4 uM after 24 hrs by Western blot method; format: functional, cell-based
MGC-803 [22] = experiment: Induction of apoptosis in human MGC803 cells assessed as increase in Bax protein expression after 24 hrs by Western blot method; format: functional, cell-based
MGC-803 [23] = experiment: Induction of apoptosis in human MGC803 cells assessed as decrease in Bcl2 protein expression at 1 to 4 uM after 24 hrs by Western blot method; format: functional, cell-based

Compound	IC50 [1]	IC50 [2]	IC50 [3]	other results
CCCSc1nc(N/N=C/c2cc(OC)c(OC)c(OC)c2)c2nnn(Cc3ccccc3)c2n1	9.41 µM	4.06 µM	> 64 µM	IC50 [4]: > 64 µM
CCCSc1nc(N/N=C/c2ccc([N+](=O)[O-])cc2)c2nnn(Cc3ccccc3)c2n1	10.1 µM	6.64 µM	11 µM	
CCCSc1nc(N/N=C(\C)c2ccccc2)c2nnn(Cc3ccccc3)c2n1	25.4 µM	32.2 µM	32.1 µM	
CCCSc1nc(N/N=C/c2ccc(Br)cc2)c2nnn(Cc3ccccc3)c2n1	34.9 µM	> 64 µM	> 64 µM	
CCCSc1nc(N/N=C/c2cccc(Cl)c2)c2nnn(Cc3ccccc3)c2n1	> 64 µM	> 64 µM	> 64 µM	
CCCSc1nc(N/N=C/c2ccc3ccccc3c2)c2nnn(Cc3ccccc3)c2n1	> 64 µM	> 64 µM	> 64 µM	
CCCSc1nc(N/N=C/c2ccccc2Cl)c2nnn(Cc3ccccc3)c2n1	10.9 µM	6.18 µM	13.8 µM	
CCCSc1nc(N/N=C(\C)c2ccccc2O)c2nnn(Cc3ccco3)c2n1	4.76 µM	5.76 µM	29 µM	IC50 [4]: 33.3 µM
CCCSc1nc(N/N=C(\C)c2ccc(OC)cc2)c2nnn(Cc3ccccc3)c2n1	44.3 µM	> 64 µM	> 64 µM	
CCCSc1nc(N/N=C(\C)c2ccccc2O)c2nnn(Cc3ccc(Br)cc3)c2n1	11.3 µM	36.1 µM	15.6 µM	
CCCSc1nc(N/N=C/c2ccc(N(C)C)cc2)c2nnn(Cc3ccccc3)c2n1	13.1 µM	20 µM	12.2 µM	
CCCSc1nc(N/N=C/c2c[nH]c3ccccc23)c2nnn(Cc3ccccc3)c2n1	7.41 µM	8.69 µM	9.01 µM	
C#CCSc1nc(N/N=C(\C)c2ccccc2O)c2nnn(Cc3ccccc3)c2n1	3.82 µM	5.25 µM	11.2 µM	
CCCSc1nc(N/N=C(\C)c2ccccc2O)c2nnn(CCO)c2n1	47.1 µM	60.3 µM	> 64 µM	
C#CCSc1nc(N/N=C/c2ccc(N(C)C)cc2)c2nnn(Cc3ccccc3)c2n1	7.62 µM	31.2 µM	> 64 µM	
CCCSc1nc(N/N=C/c2cccs2)c2nnn(Cc3ccccc3)c2n1	> 64 µM	> 64 µM	> 64 µM	
CCCSc1nc(N/N=C(\C)c2ccccc2O)c2nnn(Cc3ccc(F)cc3)c2n1	11 µM	21.9 µM	> 64 µM	
CCCSc1nc(N/N=C/c2ccc(Cl)cc2)c2nnn(Cc3ccccc3)c2n1	> 64 µM	> 64 µM	> 64 µM	

Compound	IC50 [1]	IC50 [2]	IC50 [3]	other results
COc1cc(/C=N/Nc2nc(SCc3ccccc3)nc3c2nnn3Cc2ccccc2)cc(OC)c1OC	1.32 µM	4.4 µM	13.5 µM	IC50 [4]: 48.3 µM
CCCSc1nc(N/N=C(\C)c2ccccc2O)c2nnn(Cc3cccc(Cl)c3)c2n1	6.5 µM	13 µM	39.9 µM	
CCCSc1nc(N/N=C/c2ccccc2F)c2nnn(Cc3ccccc3)c2n1	> 64 µM	> 64 µM	> 64 µM	
CCCSc1nc(N/N=C(\C)c2ccccc2O)c2nnn(CCc3cccs3)c2n1	16.4 µM	30.9 µM	> 64 µM	
CCCSc1nc(N/N=C/c2c(O)ccc3ccccc23)c2nnn(Cc3ccccc3)c2n1	3.71 µM	9.29 µM	6.4 µM	IC50 [4]: 13.1 µM
C/C(=N\Nc1nc(SCc2ccccc2)nc2c1nnn2Cc1ccccc1)c1ccccc1O	0.85 µM	1.77 µM	0.95 µM	Activity (MGC-803 [5]): Dose-dependent effect; Activity (MGC-803 [6]): <=53.9%; Activity (MGC-803 [7]): Active; Activity (MGC-803 [8]): Dose-dependent effect; Activity (MGC-803 [9]): Active; inhibition [10]: 26.8%; Activity (MGC-803 [11]): <=24.8%; Activity (MGC-803 [12]): Dose-dependent effect; Activity (MGC-803 [13]): Dose-dependent effect; Activity (MGC-803 [14]): <=90.4%; IC50 [4]: 56.2 µM; Activity (MGC-803 [15]): Active; Activity (MGC-803 [16]): Active; Activity (MGC-803 [17]): Active; Activity (MGC-803 [18]): Dose-dependent effect; Activity (MGC-803 [19]): <=8.7%; inhibition at 0.8 µM [20]: 83%; Activity (MGC-803 [21]): Active; Activity (MGC-803 [22]): Dose-dependent effect; Activity (MGC-803 [23]): Active
CCCSc1nc(N/N=C/c2ccc(C)cc2)c2nnn(Cc3ccccc3)c2n1	> 64 µM	> 64 µM	> 64 µM	
CCCSc1nc(N/N=C/c2ccccc2)c2nnn(Cc3ccccc3)c2n1	> 64 µM	> 64 µM	> 64 µM	
CCCSc1nc(N/N=C/c2cccnc2)c2nnn(Cc3ccccc3)c2n1	38.1 µM	> 64 µM	58.7 µM	
C#CCSc1nc(N/N=C/c2cc(OC)c(OC)c(OC)c2)c2nnn(Cc3ccccc3)c2n1	4.67 µM	6.54 µM	17 µM	IC50 [4]: 25.6 µM
CCCSc1nc(N/N=C(\C)c2ccc(Br)cc2)c2nnn(Cc3ccccc3)c2n1	6.02 µM	4.67 µM	13 µM	
C#CCSc1nc(N/N=C/c2c(O)ccc3ccccc23)c2nnn(Cc3ccccc3)c2n1	10.5 µM	6.52 µM	8.97 µM	
CCCSc1nc(N/N=C(\C)c2ccccc2O)c2nnn(Cc3ccccc3)c2n1	2.31 µM	11.1 µM	11 µM	IC50 [4]: 32.3 µM
CCCSc1nc(N/N=C(\C)c2ccccc2O)c2nnn(Cc3ccccc3Cl)c2n1	35 µM	> 64 µM	> 64 µM	
CCCSc1nc(N/N=C(\C)c2ccc(O)cc2)c2nnn(Cc3ccccc3)c2n1	16.7 µM	32.5 µM	21.6 µM	
O=c1[nH]cc(F)c(=O)[nH]1 [FLUOROURACIL]	7.35 µM	10.6 µM	9.25 µM	
CCCSc1nc(N/N=C(\C)c2ccccc2O)c2nnn(Cc3ccc(Cl)cc3)c2n1	7.1 µM	11.2 µM	42.6 µM	
CCCSc1nc(N/N=C(\C)c2ccccc2O)c2nnn(Cc3ccc(O)cc3)c2n1	7.68 µM	15.9 µM	9.52 µM	

From ChEMBL document CHEMBL3875177, “Design, synthesis and biological evaluation of [1,2,3]triazolo[4,5-d]pyrimidine derivatives possessing a hydrazone moiety as antiproliferative agents” (Eur J Med Chem, 2016)
